Assay type in all cases: cell-based
The target in one test is T1, human TLR9 (Homo sapiens, UniProt Q9NR96).
T1 construct: host or cells: HEK-Blue cells
T1 sequence (Q9NR96 26-1032): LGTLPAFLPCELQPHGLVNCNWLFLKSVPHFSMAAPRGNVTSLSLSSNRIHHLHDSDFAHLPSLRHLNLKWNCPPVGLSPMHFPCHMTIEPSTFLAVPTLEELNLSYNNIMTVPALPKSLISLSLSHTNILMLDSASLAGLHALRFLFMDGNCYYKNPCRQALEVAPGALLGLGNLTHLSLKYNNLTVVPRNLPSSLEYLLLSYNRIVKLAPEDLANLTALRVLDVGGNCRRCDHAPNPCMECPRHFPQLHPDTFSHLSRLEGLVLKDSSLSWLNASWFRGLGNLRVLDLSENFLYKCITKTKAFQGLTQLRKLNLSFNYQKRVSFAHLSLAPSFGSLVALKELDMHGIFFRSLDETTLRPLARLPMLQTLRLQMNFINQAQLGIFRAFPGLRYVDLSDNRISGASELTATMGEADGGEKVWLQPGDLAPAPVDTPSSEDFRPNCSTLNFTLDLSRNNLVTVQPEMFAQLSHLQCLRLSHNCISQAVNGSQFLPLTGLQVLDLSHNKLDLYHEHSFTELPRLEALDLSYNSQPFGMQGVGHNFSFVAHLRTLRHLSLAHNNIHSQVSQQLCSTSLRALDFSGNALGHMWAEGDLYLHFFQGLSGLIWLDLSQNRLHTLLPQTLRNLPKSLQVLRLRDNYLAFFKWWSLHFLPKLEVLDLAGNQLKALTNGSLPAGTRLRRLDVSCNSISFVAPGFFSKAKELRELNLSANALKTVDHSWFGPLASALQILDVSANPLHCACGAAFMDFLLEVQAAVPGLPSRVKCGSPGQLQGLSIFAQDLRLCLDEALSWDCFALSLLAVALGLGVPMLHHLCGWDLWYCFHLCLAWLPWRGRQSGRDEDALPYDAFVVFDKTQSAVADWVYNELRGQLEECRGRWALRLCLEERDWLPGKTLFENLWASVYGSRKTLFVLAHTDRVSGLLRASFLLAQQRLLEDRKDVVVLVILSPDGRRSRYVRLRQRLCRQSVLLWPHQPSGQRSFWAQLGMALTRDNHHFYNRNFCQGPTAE
Kind of test: TLR9 inhibition reporter assay (HEK-Blue cells, SEAP reporter, ODN2006 stimulation). The following applies: HEK-Blue cells overexpressing human TLR9, SEAP reporter, ODN2006 5 nM. The method in brief: (§1)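 Compound treatment: 30 min, RT, 0.05 nM–50 μM final. Agonist: TLR7 gardiquimod 7.5 μM; TLR8 R848 15.9 μM; TLR9 ODN2006 5 nM. Incubation 22 h, 37 °C, 5% CO2. Readout SEAP, HEK-Blue Detection.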
For orientation: Reporter assays use an easily measured gene product as a stand-in for the process of interest.

A further test has as its target T2, human TLR7 (Homo sapiens, UniProt Q9NYK1).
T2 construct: host or cells: HEK-Blue cells
T2 sequence (Q9NYK1 27-1049): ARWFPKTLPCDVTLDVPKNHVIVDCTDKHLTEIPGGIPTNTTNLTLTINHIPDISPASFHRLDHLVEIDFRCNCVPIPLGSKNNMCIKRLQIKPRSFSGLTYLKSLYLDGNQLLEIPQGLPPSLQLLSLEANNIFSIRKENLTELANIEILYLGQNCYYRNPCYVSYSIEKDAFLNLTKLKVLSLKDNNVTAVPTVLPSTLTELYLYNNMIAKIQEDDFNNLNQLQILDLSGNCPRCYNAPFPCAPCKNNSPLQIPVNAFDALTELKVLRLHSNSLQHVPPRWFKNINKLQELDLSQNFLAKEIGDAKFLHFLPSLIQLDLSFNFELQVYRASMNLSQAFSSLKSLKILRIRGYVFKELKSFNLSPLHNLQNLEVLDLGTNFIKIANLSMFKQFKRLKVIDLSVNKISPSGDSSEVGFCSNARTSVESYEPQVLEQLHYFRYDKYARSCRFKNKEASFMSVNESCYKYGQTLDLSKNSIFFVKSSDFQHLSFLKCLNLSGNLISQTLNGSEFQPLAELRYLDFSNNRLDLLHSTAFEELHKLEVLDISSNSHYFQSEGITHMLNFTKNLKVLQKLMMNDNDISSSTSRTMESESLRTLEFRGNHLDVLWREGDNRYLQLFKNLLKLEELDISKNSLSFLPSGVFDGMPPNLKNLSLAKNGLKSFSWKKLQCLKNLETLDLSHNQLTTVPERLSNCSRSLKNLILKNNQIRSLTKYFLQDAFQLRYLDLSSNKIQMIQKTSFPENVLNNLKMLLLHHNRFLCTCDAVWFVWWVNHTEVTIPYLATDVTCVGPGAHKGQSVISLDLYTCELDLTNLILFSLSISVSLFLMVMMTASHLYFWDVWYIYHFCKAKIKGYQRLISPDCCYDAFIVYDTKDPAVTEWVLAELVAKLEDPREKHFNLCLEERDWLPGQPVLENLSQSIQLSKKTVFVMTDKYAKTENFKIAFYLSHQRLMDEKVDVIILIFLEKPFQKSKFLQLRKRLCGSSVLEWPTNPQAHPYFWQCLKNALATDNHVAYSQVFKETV
Kind of test: TLR7 inhibition reporter assay (HEK-Blue cells, SEAP reporter, gardiquimod stimulation). The following applies: HEK-Blue cells overexpressing human TLR7, SEAP reporter, gardiquimod 7.5 μM; read-out: TLR7 IC50. The method in brief:
as §1

The next test deals with T3, human TLR8 (Homo sapiens, UniProt Q9NR97).
T3 construct: host or cells: HEK-Blue cells
T3 sequence (Q9NR97 27-1041): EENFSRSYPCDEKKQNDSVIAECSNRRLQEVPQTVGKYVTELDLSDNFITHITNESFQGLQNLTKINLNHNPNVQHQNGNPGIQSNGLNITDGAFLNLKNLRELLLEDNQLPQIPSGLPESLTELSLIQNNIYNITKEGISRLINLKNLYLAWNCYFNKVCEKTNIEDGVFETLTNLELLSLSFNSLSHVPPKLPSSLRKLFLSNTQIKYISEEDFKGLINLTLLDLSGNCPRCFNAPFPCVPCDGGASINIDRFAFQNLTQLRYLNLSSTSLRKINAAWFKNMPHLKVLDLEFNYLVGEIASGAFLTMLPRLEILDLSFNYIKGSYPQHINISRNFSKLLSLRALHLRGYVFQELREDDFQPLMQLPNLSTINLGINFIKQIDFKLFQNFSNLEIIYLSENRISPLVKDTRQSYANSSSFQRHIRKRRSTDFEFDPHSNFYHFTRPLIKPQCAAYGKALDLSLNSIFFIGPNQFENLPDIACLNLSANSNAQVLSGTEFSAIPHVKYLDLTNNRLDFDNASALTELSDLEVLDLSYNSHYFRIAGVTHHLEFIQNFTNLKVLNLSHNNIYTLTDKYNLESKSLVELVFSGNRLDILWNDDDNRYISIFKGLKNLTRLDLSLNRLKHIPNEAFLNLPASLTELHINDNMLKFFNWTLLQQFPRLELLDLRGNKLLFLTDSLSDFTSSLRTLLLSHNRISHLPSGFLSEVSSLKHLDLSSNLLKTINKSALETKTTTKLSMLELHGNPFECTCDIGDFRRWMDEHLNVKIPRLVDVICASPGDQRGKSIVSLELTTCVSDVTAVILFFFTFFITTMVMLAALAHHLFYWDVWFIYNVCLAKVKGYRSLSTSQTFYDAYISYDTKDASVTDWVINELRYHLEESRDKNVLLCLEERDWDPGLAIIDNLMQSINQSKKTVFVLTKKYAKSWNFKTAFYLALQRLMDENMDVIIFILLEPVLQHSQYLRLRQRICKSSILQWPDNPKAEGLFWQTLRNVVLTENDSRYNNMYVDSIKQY
Kind of test: TLR8 inhibition reporter assay (HEK-Blue cells, SEAP reporter, R848 stimulation). The following applies: HEK-Blue cells overexpressing human TLR8, SEAP reporter, R848 15.9 μM; read-out: TLR8 IC50. A digest of the protocol:
as §1

SMILES strings stand for the structures.

Broadly, the IC50 is the concentration that gives 50% inhibition. On to `CCC1(NC2CCC(c3nc4c(C(C)C)c(-c5cc(OC)c6ncnn6c5)[nH]c4s3)CC2)COC1` (single isomer, unassigned) [Example 94, 3-ethyl-N-(4-(6-isopropyl-5-(8-methoxy-[1,2,4]triazolo[1,5-a]pyridin-6-yl)-4H-pyrrolo[3,2-d]thiazol-2-yl)cyclohexyl)oxetan-3-amine], for which the 50% inhibitory concentration (IC50) was determined as 40700 nM on human TLR9, 1.94 nM on human TLR7 and 3.14 nM at human TLR8.

`CCC1(NC2CCC(c3nc4c(C(C)C)c(-c5cc(OC)c6ncnn6c5)[nH]c4s3)CC2)COC1` (single isomer, unassigned) [Example 95, 3-ethyl-N-(4-(6-isopropyl-5-(8-methoxy-[1,2,4]triazolo[1,5-a]pyridin-6-yl)-4H-pyrrolo[3,2-d]thiazol-2-yl)cyclohexyl)oxetan-3-amine]: the 50% inhibitory concentration (IC50) on human TLR9 stood at 43200 nM; on human TLR7, 11.7 nM; on human TLR8, 23.8 nM.

For `COc1cc(-c2[nH]c3sc(C4CCC(N5CC6(C5)CS(=O)(=O)C6)CC4)nc3c2C(C)C)cn2ncnc12` (single isomer, unassigned) [Example 96, 6-(4-(6-isopropyl-5-(8-methoxy-[1,2,4]triazolo[1,5-a]pyridin-6-yl)-4H-pyrrolo[3,2-d]thiazol-2-yl)cyclohexyl)-2-thia-6-azaspiro[3.3]heptane 2,2-dioxide], the results for the IC50 against human TLR9, on human TLR7 and on human TLR8 were 7770 nM, 1.53 nM and 0.98 nM, respectively.

In the case of `COc1cc(-c2[nH]c3sc(C4CCC(N5CCCC5)CC4)nc3c2C(C)C)cn2ncnc12` (single isomer, unassigned) [Example 98, 6-isopropyl-5-(8-methoxy-[1,2,4]triazolo[1,5-a]pyridin-6-yl)-2-(4-(pyrrolidin-1-yl)cyclohexyl)-4H-pyrrolo[3,2-d]thiazole], the IC50 on human TLR9 is 2980 nM; on human TLR7, 0.12 nM; on human TLR8, 1.37 nM.

For the compound `COc1cc(-c2[nH]c3sc(C4CCC(N5CCCC5)CC4)nc3c2C(C)C)cn2ncnc12` (single isomer, unassigned) [Example 99, 6-isopropyl-5-(8-methoxy-[1,2,4]triazolo[1,5-a]pyridin-6-yl)-2-(4-(pyrrolidin-1-yl)cyclohexyl)-4H-pyrrolo[3,2-d]thiazole], the IC50 on human TLR9 was 3610 nM; at human TLR7 it was 1.19 nM; at human TLR8 it was 36.7 nM.

For the compound `COc1cc(-c2[nH]c3sc(C4CCC(N5CC[C@@H](NC(C)=O)C5)CC4)nc3c2C(C)C)cn2ncnc12` (single isomer, unassigned) [Example 100], the half-inhibitory concentration (IC50) on human TLR9 came out at 6400 nM; at human TLR7 it was 78.9 nM; on human TLR8 it was 114 nM.

Turning to `COc1cc(-c2[nH]c3sc(C4CCC(N5CC[C@@H](NC(C)=O)C5)CC4)nc3c2C(C)C)cn2ncnc12` (single isomer, unassigned) [Example 101], the results for the IC50 against human TLR9, at human TLR7 and on human TLR8 were 4790 nM, 3.68 nM and 23 nM, respectively.

Consider `COc1cc(-c2[nH]c3sc(C4CCC(N5CCCOCC5)CC4)nc3c2C(C)C)cn2ncnc12` (single isomer, unassigned) [Example 102, 4-(4-(6-isopropyl-5-(8-methoxy-[1,2,4]triazolo[1,5-a]pyridin-6-yl)-4H-pyrrolo[3,2-d]thiazol-2-yl)cyclohexyl)-1,4-oxazepane], for which the results for the half-maximal inhibitory concentration (IC50) on human TLR9, on human TLR7 and at human TLR8 were 3890 nM, 0.37 nM and 14 nM, respectively.

Take `COc1cc(-c2[nH]c3sc(C4CCC(N5CCCOCC5)CC4)nc3c2C(C)C)cn2ncnc12` (single isomer, unassigned) [Example 103, 4-(4-(6-isopropyl-5-(8-methoxy-[1,2,4]triazolo[1,5-a]pyridin-6-yl)-4H-pyrrolo[3,2-d]thiazol-2-yl)cyclohexyl)-1,4-oxazepane]: the concentration for half-maximal inhibition (IC50) was determined as 3600 nM at human TLR9, 48 nM on human TLR7 and 3.46 nM at human TLR8.

As for `COc1cc(-c2[nH]c3sc(C4CCC(N5[C@@H]6CC[C@H]5COC6)CC4)nc3c2C(C)C)cn2ncnc12` (single isomer, unassigned) [Example 104], the half-inhibitory concentration (IC50) against human TLR9 was 5600 nM; on human TLR7 it was 1.98 nM; at human TLR8 it was 2.81 nM.

Regarding `COc1cc(-c2[nH]c3sc(C4CCC(N5[C@@H]6CC[C@H]5COC6)CC4)nc3c2C(C)C)cn2ncnc12` (single isomer, unassigned) [Example 105], the IC50 worked out at 2180 nM against human TLR9, 1.38 nM on human TLR7 and 43.2 nM at human TLR8.

In the case of `COc1cc(-c2[nH]c3sc(C4CCC(NC5(C)CCC5)CC4)nc3c2C(C)C)cn2ncnc12` (single isomer, unassigned) [Example 108, 4-(6-isopropyl-5-(8-methoxy-[1,2,4]triazolo[1,5-a]pyridin-6-yl)-4H-pyrrolo[3,2-d]thiazol-2-yl)-N-(1-methylcyclobutyl) cyclohexan-1-amine], the half-inhibitory concentration (IC50) came to 5700 nM against human TLR9, 1.34 nM on human TLR7 and 4.49 nM at human TLR8.

Source of the values: patent US20230139171A1 (SITA Information Networking Computing UK Limited, priority 2019, published 2023).
